System: E. coli thiM TPP riboswitch (ITC construct) (RNA, riboswitch) GGCAGUACUCGGGGUGCCCUUCUGCGUGAAGGCUGAGAAAUACCCGUAUCACCUGAUCUGGAUAAUGCCAGCGUAGGGAAGUGCUG
Experiment: ITC
Conditions: 1 mM MgCl2, 200 mM potassium acetate; 100 mM HEPES-Na pH 8.0, 25 °C

SMILES	KT [µM]	KL [nM]
Cc1ncc(C[n+]2csc(CCO)c2C)c(N)n1	11	
Cc1ncc(C[n+]2csc(CCOP(=O)(O)CP(=O)(O)O)c2C)c(N)n1		19

— article PMC8938680 (2022)
